Laboratory results taken from ChEMBL document CHEMBL1201862, “PubChem BioAssay data set” (2004).
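Dose response: 5 concentrations. Exposure: 48 h. Format: 96-well plates. Endpoint: linear interpolation; highest concentration if not reached. The concentration for 50% growth inhibition is given as GI50.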 Activity calls are given as the source filed them. Rule as the data show it: active = GI50 up to about 1.1 µM and inactive = higher.

Key:
Experiment in all cases: growth of human tumour cells (NCI), 48 h
OVCAR-4 = tested on: OVCAR-4
SF-539 = tested on: SF-539
SF-268 = tested on: SF-268
ACHN = tested on: ACHN
SK-MEL-2 = tested on: SK-MEL-2
Malme-3M = tested on: Malme-3M
UACC-62 = tested on: UACC-62
CCRF-CEM = tested on: CCRF-CEM
SK-OV-3 = tested on: SK-OV-3
OVCAR-5 = tested on: OVCAR-5
UACC-257 = tested on: UACC-257
NCI/ADR-RES = tested on: NCI/ADR-RES
SR = tested on: SR
COLO 205 = tested on: COLO 205
LOX IMVI = tested on: LOX IMVI
RXF 393 = tested on: RXF 393
786-0 = tested on: 786-0
HL-60 = tested on: HL-60
OVCAR-8 = tested on: OVCAR-8
NCI-H226 = tested on: NCI-H226

SMILES | GI50 (OVCAR-4) | GI50 (SF-539) | GI50 (SF-268) | GI50 (ACHN) | GI50 (SK-MEL-2) | GI50 (Malme-3M) | GI50 (UACC-62) | GI50 (CCRF-CEM) | GI50 (SK-OV-3) | GI50 (OVCAR-5) | GI50 (UACC-257) | GI50 (NCI/ADR-RES) | GI50 (SR) | GI50 (COLO 205) | GI50 (LOX IMVI) | GI50 (RXF 393) | GI50 (786-0) | GI50 (HL-60) | GI50 (OVCAR-8) | GI50 (NCI-H226)
COC1=CC(=O)c2c(c(COP(=O)(N(C)CCBr)N(C)CCBr)cn2C)C1=O | 1.33 µM (inactive) | < 0.0114 µM (active) | 0.0431 µM (active) | < 0.01 µM (active) | 0.15 µM (active) | 0.0811 µM (active) | < 0.0333 µM (active) | < 0.0158 µM (active) | 0.121 µM (active) | 0.148 µM (active) | 0.258 µM (active) | 0.134 µM (active) | < 0.01 µM (active) | 0.0521 µM (active) | 0.194 µM (active) | 0.0574 µM (active) | < 0.0103 µM (active) | < 0.01 µM (active) | < 0.0264 µM (active) | –
Cc1sc2nc(-c3ccc([N+](=O)[O-])cc3)c(/C=N/N=C(N)N)n2c1C | – | 1.72 µM (inactive) | 1.65 µM (inactive) | 1.33 µM (inactive) | 0.457 µM (active) | 1.17 µM (inactive) | 1.73 µM (inactive) | 0.206 µM (active) | 1.7 µM (inactive) | 1.36 µM (inactive) | 1.46 µM (inactive) | 2.76 µM (inactive) | 0.217 µM (active) | 0.251 µM (active) | 0.398 µM (active) | 0.942 µM (active) | 0.221 µM (active) | 1.1 µM (active) | 0.53 µM (active) | 1.84 µM (inactive)
COc1ccc(OC)c(NC2=NCCO2)c1 | > 100 µM (inactive) | > 100 µM (inactive) | > 100 µM (inactive) | > 100 µM (inactive) | 18 µM (inactive) | > 100 µM (inactive) | > 100 µM (inactive) | > 100 µM (inactive) | – | > 100 µM (inactive) | > 100 µM (inactive) | > 100 µM (inactive) | 66.4 µM (inactive) | > 100 µM (inactive) | > 100 µM (inactive) | > 100 µM (inactive) | > 100 µM (inactive) | 83.8 µM (inactive) | > 100 µM (inactive) | > 100 µM (inactive)
COc1ccc(-c2cc(-c3ccncc3)nc(N)c2-c2ccc(F)cc2)cc1 | 26.7 µM (inactive) | 19.4 µM (inactive) | 44 µM (inactive) | 3.76 µM (inactive) | 36 µM (inactive) | > 100 µM (inactive) | 71.4 µM (inactive) | > 100 µM (inactive) | 95.9 µM (inactive) | > 100 µM (inactive) | 24.2 µM (inactive) | 24.9 µM (inactive) | 4.19 µM (inactive) | 5.43 µM (inactive) | 22.8 µM (inactive) | 15 µM (inactive) | 9.29 µM (inactive) | – | 41.3 µM (inactive) | 46.1 µM (inactive)
Cc1cc(Cl)cc2c1NC(=O)C2(O)CC(=O)c1ccco1 (centres undefined) | 12.3 µM (inactive) | > 100 µM (inactive) | > 100 µM (inactive) | > 100 µM (inactive) | > 85.9 µM (inactive) | > 48.5 µM (inactive) | 31 µM (inactive) | 38.7 µM (inactive) | > 100 µM (inactive) | > 100 µM (inactive) | 45.9 µM (inactive) | 59.7 µM (inactive) | 0.506 µM (active) | > 100 µM (inactive) | > 42 µM (inactive) | 57 µM (inactive) | 54.7 µM (inactive) | – | > 78.3 µM (inactive) | > 100 µM (inactive)
CCOC(=O)c1cn(C)c(=S)n2c1nc1ccccc12 | 34.8 µM (inactive) | > 100 µM (inactive) | – | 49.1 µM (inactive) | 40.2 µM (inactive) | – | 21.8 µM (inactive) | 48.2 µM (inactive) | – | > 100 µM (inactive) | > 100 µM (inactive) | 37.8 µM (inactive) | 62.5 µM (inactive) | > 100 µM (inactive) | 56 µM (inactive) | > 100 µM (inactive) | 74.1 µM (inactive) | – | 30.8 µM (inactive) | 60.7 µM (inactive)
CCOC(=O)Oc1cc2c(ccn2C)c2c1c1ccccc1n2C(=O)OCC | > 100 µM (inactive) | > 100 µM (inactive) | > 100 µM (inactive) | > 100 µM (inactive) | > 100 µM (inactive) | 76.7 µM (inactive) | > 100 µM (inactive) | > 100 µM (inactive) | > 100 µM (inactive) | > 100 µM (inactive) | > 100 µM (inactive) | > 100 µM (inactive) | > 100 µM (inactive) | > 100 µM (inactive) | > 100 µM (inactive) | > 100 µM (inactive) | > 100 µM (inactive) | – | > 100 µM (inactive) | > 100 µM (inactive)
COC(=O)c1ccc(/C=C/C2=CC(=O)C=CC2=O)cc1 | 19.9 µM (inactive) | 10.5 µM (inactive) | 16.7 µM (inactive) | 14.7 µM (inactive) | 24 µM (inactive) | 17.4 µM (inactive) | 19.4 µM (inactive) | 2.4 µM (inactive) | – | 19.9 µM (inactive) | 17.1 µM (inactive) | 22.4 µM (inactive) | 3.3 µM (inactive) | 18.7 µM (inactive) | 6.14 µM (inactive) | 20.4 µM (inactive) | 11.4 µM (inactive) | 2.37 µM (inactive) | 16.8 µM (inactive) | 17.6 µM (inactive)
O=C(Nc1ccccc1)c1cc(S(=O)(=O)n2ccnc2O)c(S)cc1Cl | – | > 100 µM (inactive) | > 100 µM (inactive) | > 100 µM (inactive) | > 100 µM (inactive) | – | > 100 µM (inactive) | > 100 µM (inactive) | – | > 100 µM (inactive) | > 100 µM (inactive) | > 100 µM (inactive) | > 100 µM (inactive) | > 100 µM (inactive) | > 100 µM (inactive) | > 100 µM (inactive) | > 100 µM (inactive) | > 100 µM (inactive) | > 100 µM (inactive) | > 100 µM (inactive)
C[C@H]1SC(c2ccc(Cl)cc2Cl)N(NC(=O)c2ccncc2)C1=O (some centres undefined) | – | – | 22.5 µM (inactive) | 27.5 µM (inactive) | 24.3 µM (inactive) | 64.1 µM (inactive) | 26.2 µM (inactive) | 30.1 µM (inactive) | 65.2 µM (inactive) | 28.8 µM (inactive) | – | 36.9 µM (inactive) | 55.8 µM (inactive) | 37.7 µM (inactive) | – | 14.7 µM (inactive) | – | 28.9 µM (inactive) | 49.9 µM (inactive) | 18.5 µM (inactive)
C[N+](C)(CCCCCC[N+](C)(C)CCCN1C(=O)c2cccc3cccc(c23)C1=O)CCCN1C(=O)c2cccc3cccc(c23)C1=O | > 100 µM (inactive) | > 100 µM (inactive) | > 100 µM (inactive) | > 100 µM (inactive) | > 100 µM (inactive) | > 100 µM (inactive) | 33 µM (inactive) | > 100 µM (inactive) | > 100 µM (inactive) | > 100 µM (inactive) | > 100 µM (inactive) | > 100 µM (inactive) | > 100 µM (inactive) | > 100 µM (inactive) | > 100 µM (inactive) | > 100 µM (inactive) | – | > 100 µM (inactive) | > 100 µM (inactive) | –
